Entries after “also recorded” stand apart in the source; their conditions may differ.
Key:
[1] = tested on: CREB transcription factor; experiment: CREB transcription factor activation (S133 phosphorylation) in HEK293T cells (Western blot); format: cell-based, human; settings: 10 μM, vs DMSO-treated cells
Procedure: Human embryonic kidney 293T (HEK293T) cells, U87MG astrocytoma and the human oligodendrocyte cell line MO3-13 were grown in Dubelco Minimal Eagle Media (DMEM) (Invitrogen, Carlsbad, Calif., USA) supplemented with 5% heat inactivated fetal bovine serum. Cells were grown to 70% confluence prior to treatment. […] Cells were exposed to drug for 3 hours at 37° C. in a 5% CO2 incubator. U87MG cells were grown to 70% confluence prior to treatment. Cells were treated with either DMSO vehicle (NT) or individually with 1, 5 and 10 μM latanoprost in DMEM lacking fetal bovine serum. Cells were exposed to treatments for 6 hours at 37° C. in a 5% CO2 incubator. The human oligodendrocyte cell line MO3-13 was grown and differentiated according to the methods described in McLaurin et al. (McLaurin, J., Trudel, G. C., Shaw, I. T., Antel, J. P., and Cashman, N. R., J. Neurobiol., 26: 283-293, 1995). On the third day of serum starvation, cells were treated with either DMSO vehicle (NT) or individually with 1, 5 and 10 μM latanoprost. Cells were exposed to treatments for 6 hours at 37° C. in a 5% CO2 incubator. […]
(§1) Protein concentrations were determined by the Peterson method (Peterson, Analyt. Biochem., 83: 346-356, 1977). […]

U87MG astrocytoma = experiment: Immuno-slotblot assay for secreted BDNF, astrocytoma conditioned media; format: cell-based, human; settings: 1 μM, 5 μM, 10 μM; astrocyte conditioned media; vs non-treated and DMSO
Procedure: (§2) Human embryonic kidney 293T (HEK293T) cells, U87MG astrocytoma and the human oligodendrocyte cell line MO3-13 were grown in Dubelco Minimal Eagle Media (DMEM) (Invitrogen, Carlsbad, Calif., USA) supplemented with 5% heat inactivated fetal bovine serum. Cells were grown to 70% confluence prior to treatment. HEK293T cells were treated individually with […] latanoprost, unoprostone, bimatoprost, fluprostenol, PGE2, and PGF2α in serum-free DMEM. Cells were exposed to drug for 3 hours at 37° C. in a 5% CO2 incubator. U87MG cells were grown to 70% confluence prior to treatment. […]
(§3) Cell culture media from cells that were not treated or treated with DMSO, 1, 5 or 10 μM latanoprost treated was collected in 15-mL screw cap polypropylene tubes from cell culture dishes. […] The relative amount of BDNF secreted by U87MG astrocytoma and MO3-13 oligodendrocyte cell lines were determined by an immune-slotblot method in which 200 μL of conditioned media was applied in triplicate to nitrocellulose membrane pre-wet in water in a Biodot (SF) ultrafiltration unit (Bio-Rad Laboratories, Mississauga, ON, Canada) under vacuum. […] After washing the membrane as above, the bound secondary antibody was detected by ECL Advance™ Western blot HRP substrate (GE Healthcare) using a ChemiDoc™ MP Imaging System (Bio-Rad Laboratories). The relative amount of BDNF was determined by using ImageLab™ software (BioRad). […]

GSK-3 [2] = experiment: Distalless (Dll) expression in Drosophila wing imaginal discs as assay of GSK-3 function; format: cell-based; settings: for Dll expression in wing imaginal discs: Dll lacZ, vs DMSO
GSK-3 [3] = experiment: Glycogen deposition in fat body tissue of third instar larvae; format: cell-based, Drosophila melanogaster; settings: 10 and 20 μM; vs vehicle (DMSO)
Procedure: GSK-3 also functions in glycogen deposition via an independent pathway to that of the Wnt/Wg signaling pathway. GSK-3 functions in the glycogen deposition pathway by phosphorylating and inactivating glycogen synthase, which catalyzes the rate-limiting step of glycogen synthesis. To further confirm that PG and PG derivatives inhibit GSK-3 activity, fat body tissue from third instar Drosophila melanogaster larvae was treated with vehicle (DMSO) or 10 and 20 μM latanoprost and the effects of drug treatment on glycogen accumulation was monitored.

β-catenin = β-catenin stabilization in the brain of open field test mice (Western blot); format: in vivo, mouse; settings: brains after open field test; relative to mice treated with saline; n=3
Procedure: Following the open field test behavioral analysis of mice, the mice were euthanized and their brains were dissected and bifurcated along the longitudinal fissure. Brain samples from mice treated with vehicle (saline), latanoprost, or lithium were processed for β-catenin stabilization by extraction with hypotonic buffer. The levels of stabilized β-catenin were analyzed by Western blot, and the relative amounts of β-catenin (represented as the mean relative amount of three mice per group) were quantified.

[4] = tested on: human oligodendrocyte cell line MO3-13; experiment: Immuno-slotblot assay for secreted BDNF, oligodendrocyte conditioned media; format: cell-based; settings: 1 μM, 5 μM, 10 μM; oligodendrocytes media; vs non-treated and DMSO
Procedure: as §2, §3

U87MG cells = experiment: Bipolar disorder biomarkers in glioblastoma U87 cell line (Western blot); format: cell-based, human; settings: 1 μM, 5 μM, 10 μM, vs untreated cells
Procedure: Human embryonic kidney 293T (HEK293T) cells, U87MG astrocytoma and the human oligodendrocyte cell line MO3-13 were grown in Dubelco Minimal Eagle Media (DMEM) (Invitrogen, Carlsbad, Calif., USA) supplemented with 5% heat inactivated fetal bovine serum. Cells were grown to 70% confluence prior to treatment. HEK293T cells were treated individually with […] latanoprost, unoprostone, bimatoprost, fluprostenol, PGE2, and PGF2α in serum-free DMEM. Cells were exposed to drug for 3 hours at 37° C. in a 5% CO2 incubator. U87MG cells were grown to 70% confluence prior to treatment. Cells were treated with either DMSO vehicle (NT) or individually with 1, 5 and 10 μM latanoprost in DMEM lacking fetal bovine serum. Cells were exposed to treatments for 6 hours at 37° C. in a 5% CO2 incubator. The human oligodendrocyte cell line MO3-13 was grown and differentiated according to the methods described in McLaurin et al. (McLaurin, J., Trudel, G. C., Shaw, I. T., Antel, J. P., and Cashman, N. R., J. Neurobiol., 26: 283-293, 1995). On the third day of serum starvation, cells were treated with either DMSO vehicle (NT) or individually with 1, 5 and 10 μM latanoprost. Cells were exposed to treatments for 6 hours at 37° C. in a 5% CO2 incubator.
(§4) For detection of CREB and Serine-133 (S133)-phosphorylated CREB, serotonin receptor 5HT2A, TCF/LEF1, BDNF and TNF-total protein extracts were prepared from cell cultures using a sintered glass tissue homogenizer (Wheaton, Millville, N.J., USA) in phosphate-buffered saline (PBS), pH 7.5, 3M urea. For detection of β-catenin, cell cultures were washed with PBS, trypsinized, and pelleted at 1,000 rpm for 4 minutes. The cell pellets were washed and resuspended in cold hypotonic buffer consisting of 10 mM HEPES (pH 7.5), 1.5 mM MgCl2, 10 mM KCl, 0.5 mM DTT, and EDTA-free protease inhibitor (Roche, Laval, QC, Canada) in an ice bath for 5 minutes. The mixture was then homogenized using a dounce homogenizer and the cellular debris was pelleted by centrifugation at 4° C. Cytoplasmic fractions were recovered and used for assaying β-catenin.
Protein concentrations were determined by the Peterson method (Peterson, Analyt. Biochem., 83: 346-356, 1977). Proteins (20 μg/lane) were loaded onto SDS-polyacrylamide gels and separated by electrophoresis. Proteins in gels were transferred onto PVDF membranes and processed for antibody reactions. To detect CREB, S133-phosphorylated CREB, and GAPDH loading controls, antibodies were diluted in 2% ECL Advance™ blocking reagent (GE Healthcare, Mississauga, ON, Canada) and solubilized in PBS-Tween20. Membranes were probed overnight at 4° C. Membranes were washed four times with PBS-Tween20 and labeled for 1 hour at 20° C. with secondary antibodies conjugated to horseradish peroxidase (HRP). The membrane was washed four more times with PBS-Tween20 and HRP activity was developed using Advance™ chemiluminescence (ECL) reagent (GE Healthcare, Mississauga, ON, Canada) according to the manufacturer's instructions. PVDF membranes were exposed to X-ray film.
We next examined the effects of latanoprost treatment (1 μM, 5 μM, and 10 μM) on other bipolar disorder biomarkers in glioblastoma U87 cell line.

GSK-3 [5] = experiment: Cytoplasmic β-catenin stabilization in HEK293T cells (Western blot); format: cell-based, human; settings: 10 μM, vs DMSO-treated cells
Procedure: Human embryonic kidney 293T (HEK293T) cells, U87MG astrocytoma and the human oligodendrocyte cell line MO3-13 were grown in Dubelco Minimal Eagle Media (DMEM) (Invitrogen, Carlsbad, Calif., USA) supplemented with 5% heat inactivated fetal bovine serum. Cells were grown to 70% confluence prior to treatment. […] Cells were exposed to drug for 3 hours at 37° C. in a 5% CO2 incubator. U87MG cells were grown to 70% confluence prior to treatment. Cells were treated with either DMSO vehicle (NT) or individually with 1, 5 and 10 μM latanoprost in DMEM lacking fetal bovine serum. Cells were exposed to treatments for 6 hours at 37° C. in a 5% CO2 incubator. The human oligodendrocyte cell line MO3-13 was grown and differentiated according to the methods described in McLaurin et al. (McLaurin, J., Trudel, G. C., Shaw, I. T., Antel, J. P., and Cashman, N. R., J. Neurobiol., 26: 283-293, 1995). On the third day of serum starvation, cells were treated with either DMSO vehicle (NT) or individually with 1, 5 and 10 μM latanoprost. Cells were exposed to treatments for 6 hours at 37° C. in a 5% CO2 incubator.
as §4, §1

DBA/2J mice = experiment: Open field test, amphetamine-stimulated activity mouse model of bipolar disorder; format: in vivo
Procedure: DBA/2J strain mice (Jackson Laboratories, Bar Harbor, Me., USA) were obtained with an approximate starting age of 8 weeks and an average body weight of 25.9 g. Mice were acclimatized for at least three days prior to study commencement, and animals in poor condition were rejected during the acclimatization period. All mice were housed under identical conditions in animal rooms with HEPA-filtered air at a temperature of 70° F.+/−5° F. and a relative humidity of 50%+/−20%. Animal rooms maintained a minimum of 12 to 15 air changes per hour with a light/dark cycle of 12 hours on and 12 hours off with no twilight. Sterile Bed-O-Cobs® bedding was used and changed a minimum of once per week. […]
At the commencement of the study, sixty (60) mice were randomly divided into six (6) groups of ten (10) animals. […] During this time, distance traveled was automatically recorded using TopScan (Clever Sys, Reston, Va., USA) video tracking software.
The data herein indicate that PG and PG derivatives may be effective in treating neuropsychiatric conditions such as bipolar disorder. Therefore, we evaluated the efficacy of latanoprost in an open field model of bipolar disorder in mice. […]
Total distance traveled for each mouse over a 20-minute session was recorded using TopScan (Clever Sys, Reston, Va., USA) video tracking software. […]

CC(C)OC(=O)CCC/C=C\C[C@@H]1[C@@H](CC[C@@H](O)CCc2ccccc2)[C@H](O)C[C@@H]1O [latanoprost, propan-2-yl-(Z)-7-[(1R,2R,3R,5S)-3,5-dihydroxy-2-[(3R)-3-hydroxy-5-phenylpentyl]cyclopentyl]-hept-5-enoate]
levels of S133 phosphorylated-CREB [1]: increased levels of 5133 phosphorylated-CREB
amount of BDNF secreted (U87MG astrocytoma): increased significantly
Dll expression in wing imaginal discs (GSK-3 [2]; 20 μM): increased Dll expression
Dll activation (DLL protein levels in wing pouch) (GSK-3 [2]; increasing doses 1 μM, 5 μM, 10 μM and 20 μM, vs DMSO control vehicle): significant activation of Dll
glycogen accumulation in fat body tissue (GSK-3 [3]): increase in glycogen accumulation in a dosage-dependent manner
levels of β-catenin in brain (β-catenin): significantly increased levels of β-catenin
amount of BDNF secreted [4]: no significant increase
levels of BDNF (U87MG cells): increased levels
levels of inflammatory cytokine TNF-α (U87MG cells): reduced levels
levels of serotonin receptor 5HT2A (U87MG cells): increased levels
levels of transcription factor TCF/LEF1 (U87MG cells): increased levels
phosphorylation at Ser133 on CREB (U87MG cells): increased levels
total level of CREB protein (U87MG cells): remaining relatively constant
levels of cytoplasmic β-catenin (GSK-3 [5]): increased levels of cytoplasmic β-catenin
amphetamine-stimulated locomotion (distance traveled) (DBA/2J mice; final five minutes of 20-minute open field test, 0.5 mg/kg amphetamine, drug IP 1 hour prior to test, 0.5 mg/kg): significantly reduced; also recorded: significantly (P<0.05) attenuates
activity in saline-treated mice (DBA/2J mice; no amphetamine, compared among vehicle, latanoprost, lithium): No significant differences

CCCCC[C@H](O)/C=C/[C@H]1[C@H](O)CC(=O)[C@@H]1C/C=C\CCCC(=O)O [PGE2, (Z)-7-[(1R,2R,3R)-3-hydroxy-2-[(E)-(3S)-3-hydroxy-1-octenyl]-5-oxo-cyclopentyl]-hept-5-enoic acid]
levels of cytoplasmic β-catenin (GSK-3 [5]): increased levels of cytoplasmic β-catenin

CCCCC[C@H](O)/C=C/[C@@H]1[C@@H](C/C=C\CCCC(=O)O)[C@@H](O)C[C@H]1O [PGF2α, (Z)-7-[(1R,2R,3R,5S)-3,5-dihydroxy-2-[(E)-(3S)-3-hydroxy-1-octenyl]-cyclopentyl]-5-heptenoic acid]
levels of cytoplasmic β-catenin (GSK-3 [5]): increased levels of cytoplasmic β-catenin

CCCC(CCC)C(=O)O [valproate]
Dll expression in wing imaginal discs (GSK-3 [2]; 1 mM): activation of Dll expression

Reference: US9259409B2, “Compositions comprising a prostaglandin for treating neuropsychiatric conditions” (Inceptum Research & Therapeutics, Inc., priority 2011, dated 2016)
